# Patent publication US9980943B2, “Methods of treating muscular dystrophy” (BOARD OF REGENTS OF THE NEVADA SYSTEM OF HIGHER EDUCATION, …, priority 2013, dated 2018)
# Key:
# [1] = test system: α7 integrin (LacZ reporter in α7+/LacZ myotubes); experiment: Myotube α7 integrin FDG assay (Burkin assay in myotubes, 96-well); assay type: cell-based, mouse; conditions: for Burkin Assay in Myotubes, value relative to DMSO: SU9516 analogs, 96-well, N=3-6
# [2] = test system: β-galactosidase in CMV-LacZ C2C12 myoblasts; experiment: CMV-LacZ secondary screen in C2C12 myoblasts (β-Gal stabilizing assay); assay type: cell-based, mouse; conditions: for CMV-LACZ in Myoblasts, value relative to DMSO: SU9516 analogs, C2C12 CMV-LacZ, N=2; for CMV-LACZ in Myoblasts (β-galactosidase activity relative to DMSO): CMV-LacZ C2C12 myoblasts
# Summary of the method: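 C2C12 myoblasts stably carrying a linearized CMV-driven LacZ construct, clone chosen by β-gal level in the myoblast FDG assay. Compounds tested in 96-well dose-response at 0.5, 1, 5, 10, 20 and 40 μM, N=2 replicates per point, to detect β-gal stabilization.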
# [3] = test system: β-galactosidase in CMV-LacZ C2C12 myotubes; experiment: CMV-LacZ secondary screen in C2C12 myotubes (β-Gal stabilizing assay); assay type: cell-based, mouse; conditions: for CMV-LACZ in Myotubes, value relative to DMSO: SU9516 analogs, C2C12 CMV-LacZ, N=2; for CMV-LACZ in Myotubes, signal relative to DMSO: C2C12 CMV-LacZ myotubes, fold relative to DMSO
# Summary of the method: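 A secondary screen identifies compounds that stabilize β-gal independently of the native promoter, using CMV-LacZ C2C12 cells. Curves span 0.5–40 μM at six levels, in duplicate.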
# [4] = test system: α7 Integrin protein in C2C12 myotubes; experiment: Western blot of α7 integrin protein in C2C12 myotubes; assay type: cell-based, mouse; conditions: 12 μM, 48 hours, α7B Integrin normalized to GAPDH
# Description: Bands were quantified using Image J software and then graphed as α7 Integrin protein levels relative to GAPDH protein levels. * denotes a significant difference in relative protein levels with ** p<0.01.
# C2C12 myotubes were treated for 48 hours with each hit compound, washed with PBS, then scraped and pelleted using standard procedures. Cell pellets were resuspended in RIPA buffer and protein concentration determined by BCA. Approximately 10 μg of protein was loaded per lane and separated on 8% SDS-PAGE gels and transferred to nitrocellulose using standard conditions. Blots were probed using α7A and α7B integrin specific rabbit polyclonal antibody as previously described and […].
# Western blot analysis of the myotube protein extracts were then performed for α7B Integrin and normalized to GAPDH (FIGS. 8A and 8B).
# Immunoblot analysis is used to assess the protein level expression in treated and control cells. C2C12 and human DMD myoblasts and myotubes are cultured in triplicate experiments and treated with lead compounds or DMSO as described above. Cells are harvested using a cell scraper and extracted proteins. Extracted protein is quantified by a Bradford assay. […] A LiCoR Odyssey scanner and software is used to quantify band intensities and statistical significance (p<0.05) is determined using ANOVA.
# [5] = test system: α7 integrin (LacZ reporter in α7LacZ+/− myoblasts); experiment: qHTS of the LOPAC library and MLSMR (online screen, α7LacZ+/− myoblasts); conditions: LOPAC library
# Description: A total of 250 α7LacZ^+/− myoblasts at passage 13 were dispensed using a multidrop (Thermo) into black low base tissue culture treated microclear aurora plates in 6 μl media containing DMEM without phenol, 5% FBS, 1× GluMax and 1× Penicillin/Streptomycin. […] Compounds were then dispensed using a Kalypsys pintool to deliver 23 nl/well compounds in DMSO (diluted into 6 μl resulting in a 1:260 dilution of compound). […] After incubation with compound, 5 μl of the media was aspirated using the Kalypsys washer/dispenser and 3 μl of the Mammalian Protein Extraction Reagent (MPER) lysis buffer (Thermo Fisher) was added. […] The plates were then incubated for 10 minutes at room temperature.
# The assay was adapted for a high-throughput screen with the fully automated Kalypsys robotic system using 1536 well plates at NCGC.
# [6] = test system: α7 integrin (LacZ reporter in α7βgal+/− myoblasts); experiment: Myoblast α7+/LacZ integrin FDG assay (Burkin assay in myoblasts, 96-well); assay type: cell-based, mouse; conditions: 96-well; for Burkin Assay in Myoblasts, value relative to DMSO: SU9516 analogs, N=3-6; for Burkin Assay in Myoblasts, signal relative to DMSO: α7+/LacZ myoblasts
smiles,measurement,setting,value
"COc1ccc2c(c1)/C(=C/c1cnc[nH]1)C(=O)N2 [SU9516, 3-[1-(3H-imidazol-4-yl)-meth-(Z)-ylidene]-5-methoxy-1,3-dihydro-indol-2-one, reference compound]",EC50,"[1]; Mus musculus, Myotube, read-out: EC50 α7+/LacZ MT",6 µM
same,activity in C2C12 CMV-LACZ myoblasts,[2],showed activity
same,activity in C2C12 CMV-LACZ myotubes,[3],showed activity
same,increase in α7 Integrin protein levels compared to DMSO treated controls,[4],approximately 1.6 fold
same,outcome of preliminary LOPAC library screen,[5],hit
Cc1[nH]c(C=C2C(=O)Nc3ccccc32)c(C)c1CCC(=O)O [NCGC00241113-01],"Burkin Assay in Myoblasts, value relative to DMSO",[6]; 0.5 uM,1.011
same,"Burkin Assay in Myoblasts, value relative to DMSO",[6]; 1 uM,1.057
same,"Burkin Assay in Myoblasts, value relative to DMSO",[6]; 5 uM,0.9062
same,"Burkin Assay in Myoblasts, value relative to DMSO",[6]; 10 uM,0.8662
same,"Burkin Assay in Myoblasts, value relative to DMSO",[6]; 20 uM,0.9594
same,"Burkin Assay in Myoblasts, value relative to DMSO",[6]; 40 uM,0.9168
same,"Burkin Assay in Myotubes, value relative to DMSO",[1]; 0.5 uM,1.078
same,"Burkin Assay in Myotubes, value relative to DMSO",[1]; 1 uM,1.105
same,"Burkin Assay in Myotubes, value relative to DMSO",[1]; 5 uM,0.8489
same,"Burkin Assay in Myotubes, value relative to DMSO",[1]; 10 uM,0.7678
same,"Burkin Assay in Myotubes, value relative to DMSO",[1]; 20 uM,0.7458
same,"Burkin Assay in Myotubes, value relative to DMSO",[1]; 40 uM,0.6312
same,"CMV-LACZ in Myoblasts, value relative to DMSO",[2]; 0.5 uM,1.4142
same,"CMV-LACZ in Myoblasts, value relative to DMSO",[2]; 5 uM,1.1634
same,"CMV-LACZ in Myoblasts, value relative to DMSO",[2]; 10 uM,1.1352
same,"CMV-LACZ in Myoblasts, value relative to DMSO",[2]; 20 uM,2.7827
same,"CMV-LACZ in Myoblasts, value relative to DMSO",[2]; 40 uM,3.3097
same,"CMV-LACZ in Myotubes, value relative to DMSO",[3]; 0.5 uM,0.8627
same,"CMV-LACZ in Myotubes, value relative to DMSO",[3]; 1 uM,1.3227
same,"CMV-LACZ in Myotubes, value relative to DMSO",[3]; 5 uM,0.9410
same,"CMV-LACZ in Myotubes, value relative to DMSO",[3]; 10 uM,1.0724
same,"CMV-LACZ in Myotubes, value relative to DMSO",[3]; 20 uM,0.9790
same,"CMV-LACZ in Myotubes, value relative to DMSO",[3]; 40 uM,0.9520
c1ccc(-c2nn[nH]n2)nc1 [MLS000767397-01],"Burkin Assay in Myoblasts, signal relative to DMSO",[6]; 0.5 uM,0.8862
same,"Burkin Assay in Myoblasts, signal relative to DMSO",[6]; 1 uM,0.839
same,"Burkin Assay in Myoblasts, signal relative to DMSO",[6]; 5 uM,1.476
same,"Burkin Assay in Myoblasts, signal relative to DMSO",[6]; 10 uM,0.9334
same,"Burkin Assay in Myoblasts, signal relative to DMSO",[6]; 20 uM,1.613
same,"Burkin Assay in Myoblasts, signal relative to DMSO",[6]; 40 uM,0.9754
same,"Burkin Assay in Myotubes, α7 integrin LacZ reporter signal relative to DMSO",[1]; 0.5 uM,0.9294
same,"Burkin Assay in Myotubes, α7 integrin LacZ reporter signal relative to DMSO",[1]; 1 uM,0.9481
same,"Burkin Assay in Myotubes, α7 integrin LacZ reporter signal relative to DMSO",[1]; 5 uM,1.004
same,"Burkin Assay in Myotubes, α7 integrin LacZ reporter signal relative to DMSO",[1]; 10 uM,1.0608
same,"Burkin Assay in Myotubes, α7 integrin LacZ reporter signal relative to DMSO",[1]; 20 uM,0.9993
same,"Burkin Assay in Myotubes, α7 integrin LacZ reporter signal relative to DMSO",[1]; 40 uM,1.014
same,CMV-LACZ in Myoblasts (β-galactosidase activity relative to DMSO),[2]; 0.5 uM,1.2748
same,CMV-LACZ in Myoblasts (β-galactosidase activity relative to DMSO),[2]; 1 uM,1.0646
same,CMV-LACZ in Myoblasts (β-galactosidase activity relative to DMSO),[2]; 5 uM,0.9910
same,CMV-LACZ in Myoblasts (β-galactosidase activity relative to DMSO),[2]; 10 uM,0.9687
same,CMV-LACZ in Myoblasts (β-galactosidase activity relative to DMSO),[2]; 20 uM,0.8485
same,CMV-LACZ in Myoblasts (β-galactosidase activity relative to DMSO),[2]; 40 uM,1.1433
same,"CMV-LACZ in Myotubes, signal relative to DMSO",[3]; 0.5 uM,0.8737
same,"CMV-LACZ in Myotubes, signal relative to DMSO",[3]; 1 uM,1.0368
same,"CMV-LACZ in Myotubes, signal relative to DMSO",[3]; 5 uM,0.9425
same,"CMV-LACZ in Myotubes, signal relative to DMSO",[3]; 10 uM,0.9519
same,"CMV-LACZ in Myotubes, signal relative to DMSO",[3]; 20 uM,1.0144
same,"CMV-LACZ in Myotubes, signal relative to DMSO",[3]; 40 uM,1.0067
Cc1cc(OCC(=O)NC(C)C)ccc1Cl [MLS000684034-01],"Burkin Assay in Myoblasts, signal relative to DMSO",[6]; 0.5 uM,0.999
same,"Burkin Assay in Myoblasts, signal relative to DMSO",[6]; 1 uM,1.02
same,"Burkin Assay in Myoblasts, signal relative to DMSO",[6]; 5 uM,0.7872
same,"Burkin Assay in Myoblasts, signal relative to DMSO",[6]; 10 uM,0.6258
same,"Burkin Assay in Myoblasts, signal relative to DMSO",[6]; 20 uM,0.4225
same,"Burkin Assay in Myoblasts, signal relative to DMSO",[6]; 40 uM,0.3085
same,"Burkin Assay in Myotubes, α7 integrin LacZ reporter signal relative to DMSO",[1]; 0.5 uM,0.9731
same,"Burkin Assay in Myotubes, α7 integrin LacZ reporter signal relative to DMSO",[1]; 1 uM,0.9536
same,"Burkin Assay in Myotubes, α7 integrin LacZ reporter signal relative to DMSO",[1]; 5 uM,0.8383
same,"Burkin Assay in Myotubes, α7 integrin LacZ reporter signal relative to DMSO",[1]; 10 uM,0.8076
same,"Burkin Assay in Myotubes, α7 integrin LacZ reporter signal relative to DMSO",[1]; 20 uM,0.7403
same,"Burkin Assay in Myotubes, α7 integrin LacZ reporter signal relative to DMSO",[1]; 40 uM,0.7385
same,CMV-LACZ in Myoblasts (β-galactosidase activity relative to DMSO),[2]; 0.5 uM,1.2525
same,CMV-LACZ in Myoblasts (β-galactosidase activity relative to DMSO),[2]; 1 uM,1.1492
same,CMV-LACZ in Myoblasts (β-galactosidase activity relative to DMSO),[2]; 5 uM,1.2045
same,CMV-LACZ in Myoblasts (β-galactosidase activity relative to DMSO),[2]; 10 uM,1.0568
same,CMV-LACZ in Myoblasts (β-galactosidase activity relative to DMSO),[2]; 20 uM,0.5374
same,CMV-LACZ in Myoblasts (β-galactosidase activity relative to DMSO),[2]; 40 uM,0.3100
same,"CMV-LACZ in Myotubes, signal relative to DMSO",[3]; 0.5 uM,1.0962
same,"CMV-LACZ in Myotubes, signal relative to DMSO",[3]; 1 uM,0.9810
same,"CMV-LACZ in Myotubes, signal relative to DMSO",[3]; 5 uM,1.1407
same,"CMV-LACZ in Myotubes, signal relative to DMSO",[3]; 10 uM,1.1903
same,"CMV-LACZ in Myotubes, signal relative to DMSO",[3]; 20 uM,1.2347
same,"CMV-LACZ in Myotubes, signal relative to DMSO",[3]; 40 uM,1.0105
CC(C)Oc1ccc(C(=O)/C=C2/C(=O)Nc3ccccc32)cc1 [MLS001214276-01],"Burkin Assay in Myoblasts, value relative to DMSO",[6]; 0.5 uM,1.328
same,"Burkin Assay in Myoblasts, value relative to DMSO",[6]; 1 uM,1.222
same,"Burkin Assay in Myoblasts, value relative to DMSO",[6]; 5 uM,0.6234
same,"Burkin Assay in Myoblasts, value relative to DMSO",[6]; 10 uM,0.3235
same,"Burkin Assay in Myoblasts, value relative to DMSO",[6]; 20 uM,0.2022
same,"Burkin Assay in Myoblasts, value relative to DMSO",[6]; 40 uM,0.02694
same,"Burkin Assay in Myotubes, value relative to DMSO",[1]; 0.5 uM,1.162
same,"Burkin Assay in Myotubes, value relative to DMSO",[1]; 1 uM,1.197
same,"Burkin Assay in Myotubes, value relative to DMSO",[1]; 5 uM,0.9019
same,"Burkin Assay in Myotubes, value relative to DMSO",[1]; 10 uM,0.6945
same,"Burkin Assay in Myotubes, value relative to DMSO",[1]; 20 uM,0.2362
same,"Burkin Assay in Myotubes, value relative to DMSO",[1]; 40 uM,0.07736
same,"CMV-LACZ in Myoblasts, value relative to DMSO",[2]; 0.5 uM,0.9516
same,"CMV-LACZ in Myoblasts, value relative to DMSO",[2]; 1 uM,0.8731
same,"CMV-LACZ in Myoblasts, value relative to DMSO",[2]; 5 uM,1.3014
same,"CMV-LACZ in Myoblasts, value relative to DMSO",[2]; 10 uM,1.2231
same,"CMV-LACZ in Myoblasts, value relative to DMSO",[2]; 20 uM,1.2922
same,"CMV-LACZ in Myoblasts, value relative to DMSO",[2]; 40 uM,0.1781
same,"CMV-LACZ in Myotubes, value relative to DMSO",[3]; 0.5 uM,0.7733
same,"CMV-LACZ in Myotubes, value relative to DMSO",[3]; 1 uM,0.9141
same,"CMV-LACZ in Myotubes, value relative to DMSO",[3]; 5 uM,2.0151
same,"CMV-LACZ in Myotubes, value relative to DMSO",[3]; 10 uM,11.1000
same,"CMV-LACZ in Myotubes, value relative to DMSO",[3]; 20 uM,0.5259
same,"CMV-LACZ in Myotubes, value relative to DMSO",[3]; 40 uM,0.4976
